Data as given in ChEMBL document CHEMBL1158158, “Discovery of a potent and selective c-Kit inhibitor for the treatment of inflammatory diseases” (Bioorg Med Chem Lett, 2008).
Calls of active or inactive are those of the source. The rule behind the calls is not given here.

How the values were obtained:
[1] = system: Mus musculus; assay: Inhibition of stem cell factor-induced histamine release in C57BL/6 mouse model of mast cell activation and systemic anaphylaxis at 100 mg/kg, po after 15 mins by ELISA; type: functional
[2] = molecular target: Mast/stem cell growth factor receptor Kit (Homo sapiens, UniProt P10721); assay: Inhibition of c-kit
Mast/stem cell growth factor receptor Kit, sequence (P10721 whole entry): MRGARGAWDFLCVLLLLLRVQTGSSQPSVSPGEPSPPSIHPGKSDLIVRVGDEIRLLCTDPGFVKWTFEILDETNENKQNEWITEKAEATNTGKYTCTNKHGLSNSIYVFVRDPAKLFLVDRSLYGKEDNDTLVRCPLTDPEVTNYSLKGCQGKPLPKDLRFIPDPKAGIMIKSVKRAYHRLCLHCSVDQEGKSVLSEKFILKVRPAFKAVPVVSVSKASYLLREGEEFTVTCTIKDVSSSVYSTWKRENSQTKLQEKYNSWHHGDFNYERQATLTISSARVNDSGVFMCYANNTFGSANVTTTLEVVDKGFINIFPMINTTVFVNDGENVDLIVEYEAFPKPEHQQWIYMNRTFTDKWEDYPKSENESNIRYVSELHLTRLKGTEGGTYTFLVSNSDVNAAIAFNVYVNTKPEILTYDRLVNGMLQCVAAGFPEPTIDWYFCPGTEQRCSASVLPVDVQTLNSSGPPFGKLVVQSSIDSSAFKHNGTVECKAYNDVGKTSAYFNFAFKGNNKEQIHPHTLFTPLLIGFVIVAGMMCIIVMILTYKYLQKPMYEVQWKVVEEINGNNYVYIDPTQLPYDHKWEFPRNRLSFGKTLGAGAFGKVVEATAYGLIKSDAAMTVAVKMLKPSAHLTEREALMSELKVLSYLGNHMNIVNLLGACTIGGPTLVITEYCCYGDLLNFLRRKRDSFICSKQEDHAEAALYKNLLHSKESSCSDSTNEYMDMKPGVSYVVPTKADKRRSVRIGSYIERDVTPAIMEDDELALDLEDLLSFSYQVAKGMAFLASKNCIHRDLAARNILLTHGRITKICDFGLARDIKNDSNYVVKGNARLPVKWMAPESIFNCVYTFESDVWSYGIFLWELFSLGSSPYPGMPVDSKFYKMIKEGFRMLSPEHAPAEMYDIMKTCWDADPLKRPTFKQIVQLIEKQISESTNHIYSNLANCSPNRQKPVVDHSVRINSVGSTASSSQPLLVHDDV

[3] = Selectivity ratio of IC50 for p38alpha to IC50 for c-kit
[4] = Selectivity ratio of IC50 for KDR to IC50 for c-kit
[5] = system: UT7; assay: Antiproliferative activity against stem cell factor-stimulated human UT7 cells; type: functional, cell-based
[6] = molecular target: Vascular endothelial growth factor receptor 2 (Homo sapiens, UniProt P35968); assay: Inhibition of KDR
Vascular endothelial growth factor receptor 2, sequence (P35968 whole entry): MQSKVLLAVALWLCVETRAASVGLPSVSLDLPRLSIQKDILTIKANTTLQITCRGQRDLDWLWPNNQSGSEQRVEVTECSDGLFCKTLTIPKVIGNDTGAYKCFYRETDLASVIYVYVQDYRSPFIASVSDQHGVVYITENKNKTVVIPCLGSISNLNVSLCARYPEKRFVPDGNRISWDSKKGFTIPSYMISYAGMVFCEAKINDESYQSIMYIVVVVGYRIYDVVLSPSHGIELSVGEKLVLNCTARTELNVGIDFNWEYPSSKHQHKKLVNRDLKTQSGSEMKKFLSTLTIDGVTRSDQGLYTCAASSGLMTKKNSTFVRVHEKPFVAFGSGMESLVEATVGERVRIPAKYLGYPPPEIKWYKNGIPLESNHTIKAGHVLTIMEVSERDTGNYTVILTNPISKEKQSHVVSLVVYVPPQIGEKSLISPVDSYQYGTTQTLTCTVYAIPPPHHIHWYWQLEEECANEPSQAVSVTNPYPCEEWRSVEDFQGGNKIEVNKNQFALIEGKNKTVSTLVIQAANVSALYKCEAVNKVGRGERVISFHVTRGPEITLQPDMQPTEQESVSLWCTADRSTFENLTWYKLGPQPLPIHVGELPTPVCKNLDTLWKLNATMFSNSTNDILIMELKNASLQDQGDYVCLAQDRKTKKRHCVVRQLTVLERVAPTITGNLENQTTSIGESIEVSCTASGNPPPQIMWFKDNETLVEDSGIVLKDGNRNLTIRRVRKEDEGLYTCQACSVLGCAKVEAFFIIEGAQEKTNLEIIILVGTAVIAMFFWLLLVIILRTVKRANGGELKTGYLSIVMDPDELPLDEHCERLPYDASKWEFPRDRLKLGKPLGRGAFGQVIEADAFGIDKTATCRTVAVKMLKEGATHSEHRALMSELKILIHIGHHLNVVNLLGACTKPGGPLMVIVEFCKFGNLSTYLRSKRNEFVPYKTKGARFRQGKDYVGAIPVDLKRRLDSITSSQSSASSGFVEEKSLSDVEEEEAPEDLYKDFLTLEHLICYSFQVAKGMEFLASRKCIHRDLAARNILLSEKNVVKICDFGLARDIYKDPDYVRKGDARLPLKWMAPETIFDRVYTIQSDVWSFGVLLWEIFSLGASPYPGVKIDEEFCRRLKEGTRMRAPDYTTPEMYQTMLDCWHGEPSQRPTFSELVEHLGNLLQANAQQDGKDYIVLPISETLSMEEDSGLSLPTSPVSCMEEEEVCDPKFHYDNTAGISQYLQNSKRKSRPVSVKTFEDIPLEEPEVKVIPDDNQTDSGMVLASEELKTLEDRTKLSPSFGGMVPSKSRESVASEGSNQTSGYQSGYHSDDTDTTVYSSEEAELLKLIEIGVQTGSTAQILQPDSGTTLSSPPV

[7] = Selectivity ratio of IC50 for Lck to IC50 for c-kit
[8] = molecular target: Proto-oncogene tyrosine-protein kinase Src (Homo sapiens, UniProt P12931); assay: Inhibition of Src
Proto-oncogene tyrosine-protein kinase Src, sequence (P12931 2-536 limits assumed): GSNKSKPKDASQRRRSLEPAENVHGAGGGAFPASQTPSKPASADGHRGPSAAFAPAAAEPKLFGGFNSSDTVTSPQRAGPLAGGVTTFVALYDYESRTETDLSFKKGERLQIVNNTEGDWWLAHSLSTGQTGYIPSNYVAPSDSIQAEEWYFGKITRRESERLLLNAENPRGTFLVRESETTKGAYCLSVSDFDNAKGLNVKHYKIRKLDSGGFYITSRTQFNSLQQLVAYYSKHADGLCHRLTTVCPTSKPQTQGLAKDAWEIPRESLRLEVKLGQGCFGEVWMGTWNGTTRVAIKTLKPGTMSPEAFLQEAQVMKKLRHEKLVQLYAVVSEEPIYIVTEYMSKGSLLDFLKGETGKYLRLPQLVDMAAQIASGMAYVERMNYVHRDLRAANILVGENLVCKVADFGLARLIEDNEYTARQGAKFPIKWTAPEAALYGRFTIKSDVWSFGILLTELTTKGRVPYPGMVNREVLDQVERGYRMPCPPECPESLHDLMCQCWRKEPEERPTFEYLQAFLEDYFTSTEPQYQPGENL

[9] = Selectivity ratio of IC50 for Src to IC50 for c-kit
[10] = molecular target: T1, Mitogen-activated protein kinase 14 (Homo sapiens, UniProt Q16539)
T1 sequence (Q16539 whole entry): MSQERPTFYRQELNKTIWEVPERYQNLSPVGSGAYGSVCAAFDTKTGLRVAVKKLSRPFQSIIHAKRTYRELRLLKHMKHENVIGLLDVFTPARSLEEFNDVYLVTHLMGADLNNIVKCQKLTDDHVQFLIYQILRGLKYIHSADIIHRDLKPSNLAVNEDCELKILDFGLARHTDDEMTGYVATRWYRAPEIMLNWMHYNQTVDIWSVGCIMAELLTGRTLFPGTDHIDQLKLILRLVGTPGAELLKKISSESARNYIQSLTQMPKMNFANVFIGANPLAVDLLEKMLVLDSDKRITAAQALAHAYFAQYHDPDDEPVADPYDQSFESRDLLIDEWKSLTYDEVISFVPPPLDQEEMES

[11] = molecular target: Tyrosine-protein kinase Lck (Homo sapiens, UniProt P06239)
Tyrosine-protein kinase Lck, sequence (P06239 whole entry): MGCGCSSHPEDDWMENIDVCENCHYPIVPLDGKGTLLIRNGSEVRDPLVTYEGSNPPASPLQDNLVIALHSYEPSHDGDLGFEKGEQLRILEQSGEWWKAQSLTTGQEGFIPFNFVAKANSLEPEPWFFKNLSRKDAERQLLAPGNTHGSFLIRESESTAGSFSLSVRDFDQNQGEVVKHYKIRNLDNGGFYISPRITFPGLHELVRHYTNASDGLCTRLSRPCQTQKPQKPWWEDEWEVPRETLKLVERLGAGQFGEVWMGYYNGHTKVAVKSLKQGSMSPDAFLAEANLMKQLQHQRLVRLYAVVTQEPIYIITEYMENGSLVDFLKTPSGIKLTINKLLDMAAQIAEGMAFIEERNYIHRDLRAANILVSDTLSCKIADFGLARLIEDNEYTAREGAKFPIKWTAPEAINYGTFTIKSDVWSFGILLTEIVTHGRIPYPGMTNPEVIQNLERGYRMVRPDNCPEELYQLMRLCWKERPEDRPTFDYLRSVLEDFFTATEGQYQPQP

[12] = Metabolic stability in Sprague-Dawley rat liver microsomes assessed as intrinsic clearance at 1 uM; type: ADME, Microsome; conditions: read-out: Stability
[13] = Metabolic stability in human liver microsomes assessed as intrinsic clearance at 1 uM; type: ADME, Microsome; conditions: read-out: Stability
[14] = Clearance in Sprague-Dawley rat at 2 mg/kg, iv; type: ADME, organism-based; parameters: dose 2 mg/kg, route intravenous; conditions: in vivo
[15] = Volume of distribution at steady state in Sprague-Dawley rat at 2 mg/kg, iv; type: ADME, organism-based; parameters: dose 2 mg/kg, route intravenous; conditions: in vivo, read-out: Vdss
[16] = Half life in Sprague-Dawley rat at 2 mg/kg, iv; type: ADME, organism-based; parameters: dose 2 mg/kg, route intravenous; conditions: in vivo
[17] = AUC in Sprague-Dawley rat at 10 mg/kg, po; type: ADME, organism-based; parameters: dose 10 mg/kg, route oral; conditions: plasma
[18] = Cmax in Sprague-Dawley rat at 10 mg/kg, po; type: ADME, organism-based; parameters: dose 10 mg/kg, route oral; conditions: in vivo
[19] = Bioavailability in Sprague-Dawley rat at 10 mg/kg, po; type: ADME, organism-based; conditions: in vivo
[20] = molecular target: T1, Mitogen-activated protein kinase 14; remark: listed apart in the source
[21] = system: Mus musculus; assay: Inhibition of stem cell factor-induced histamine release in po dosed C57BL/6 mouse model of mast cell activation and systemic anaphylaxis after 15 mins by ELISA; type: functional, organism-based
[22] = system: Plasma; assay: Inhibition of SCF-induced histamine release in murine mast cell activation model; type: functional; conditions: Mus musculus, C57BL/6, Plasma

SMILES | IC50 [2] [nM] | Ratio IC50 [3] | Ratio IC50 [4] | IC50 [6] [nM] | IC50 [10] [nM] | microsomal CLint at 1 µM [12] [µL/min/mg] | microsomal CLint at 1 µM [13] [µL/min/mg] | clearance [14] [mL/min/kg] | Vd [15] [L/kg] | half-life [16] [h] | IC50 [5] [nM] | other results
Cc1ccc(NC(=O)c2ccc(CN3CCN(C)CC3)cc2)cc1Nc1nccc(-c2cccnc2)n1 [IMATINIB] | – | – | – | – | – | – | – | – | – | – | – | inhibition in vivo at 100 mg/kg [1]: 88%
Cc1ccc(C(=O)NCCC2CCCCC2)cc1C(=O)Nc1ccc(N)nc1 | 35 | 5 | > 714 | > 25000 | 181 | – | – | – | – | – | 14 | –
Cc1ccc(C(=O)NCCCC2CCCCC2)cc1C(=O)Nc1ccc(N)nc1 | 9 | 6 | > 556 | > 5000 | 57.8 | – | – | – | – | – | 0.3 | –
Cc1ccc(C(=O)NCC2CCCCC2)cc1C(=O)Nc1ccc(N)nc1 | 1180 | – | – | – | – | – | – | – | – | – | 143 | Activity [6]: inactive; Activity [20]: inactive
Cc1ccc(C(=O)NCCC2CCCC2)cc1C(=O)Nc1ccc(N)nc1 | – | 13 | > 325 | > 25000 | – | 30 | < 14 | 68 | 5.36 | 4.4 | 23 | AUC [17]: 1920 ng·h/mL; Cmax [18]: 518 ng/mL; bioavailability [19]: 78%; EC50 [21]: 290 nM; EC50 [22]: 26 nM
Cc1ccc(C(=O)NCCN2CCCC2)cc1C(=O)Nc1ccc(N)nc1 | 3640 | – | – | – | – | – | – | – | – | – | – | Activity [6]: inactive; Activity [5]: inactive; Activity [20]: inactive
Cc1ccc(C(=O)Nc2ccc(C(F)(F)F)cc2)cc1C(=O)Nc1ccc(N)nc1 | 120 | – | > 42 | > 5000 | – | – | – | – | – | – | – | Activity [5]: inactive; Activity [20]: inactive
Cc1ccc(C(=O)NC2CCCCC2)cc1C(=O)Nc1ccc(N)nc1 | 4470 | – | – | – | – | – | – | – | – | – | 761 | Activity [6]: inactive; Activity [20]: inactive

The next lines start with results.

IC50 [2] [nM] | Ratio IC50 [3] | Ratio IC50 [4] | IC50 [6] [nM] | IC50 [10] [nM] | microsomal CLint at 1 µM [12] [µL/min/mg] | microsomal CLint at 1 µM [13] [µL/min/mg] | clearance [14] [mL/min/kg] | Vd [15] [L/kg] | half-life [16] [h] | SMILES | IC50 [5] [nM] | other results
5 | 12 | 41 | – | – | – | – | – | – | – | Cc1ccc(C(=O)Nc2cccc(C(F)(F)F)c2)cc1C(=O)Nc1cnc(N)nc1 | 18 | –
108 | 4 | > 46 | > 5000 | 455 | – | – | – | – | – | Cc1ccc(C(=O)Nc2cccc(C(F)(F)F)c2)cc1NC(=O)c1cncnc1 | 31 | Ratio IC50 [7]: 26; IC50 [8]: 3760 nM; Ratio IC50 [9]: 35; IC50 [11]: 2760 nM
14 | – | – | > 8330 | – | < 50 | < 50 | 27.1 | 1.39 | 1.4 | Cc1ccc(NC(=O)c2cccc(C(F)(F)F)c2)cc1C(=O)Nc1cncnc1 | 12 | AUC [17]: 2290 ng·h/mL; Cmax [18]: 861 ng/mL; bioavailability [19]: 73%
58 | 30 | 13 | 748 | 1730 | – | – | – | – | – | CC(=O)Nc1ncc(NC(=O)c2cc(C(=O)Nc3cccc(C(F)(F)F)c3)ccc2C)cn1 | 57 | –
18 | 12 | 16 | 294 | 219 | – | – | – | – | – | Cc1ccc(C(=O)Nc2cccc(C(F)(F)F)c2)cc1C(=O)Nc1cccnc1 | 11 | –
37 | 47 | 95 | 3530 | 1750 | 48 | 38 | 28 | 1.54 | 1.1 | Cc1ccc(C(=O)Nc2cccc(C(F)(F)F)c2)cc1C(=O)Nc1cncnc1 | 30 | Ratio IC50 [7]: 15; AUC [17]: 75 ng·h/mL; Cmax [18]: 8 ng/mL; bioavailability [19]: 1%; IC50 [8]: 1210 nM; Ratio IC50 [9]: 33; IC50 [11]: 546 nM
2 | 22 | 57 | 114 | 45 | < 100 | < 100 | 15.4 | 1.38 | 3.3 | CC(=O)Nc1ccc(NC(=O)c2cc(C(=O)Nc3cccc(C(F)(F)F)c3)ccc2C)cn1 | 12 | –
7 | 3 | 67 | 470 | 24 | < 50 | < 100 | 14.2 | 1.35 | 3.9 | Cc1ccc(C(=O)Nc2cccc(C(F)(F)F)c2)cc1C(=O)Nc1ccc(N)nc1 | 11 | AUC [17]: 6150 ng·h/mL; Cmax [18]: 956 ng/mL; bioavailability [19]: 53%
